{"source": "patent US6355799B1", "about": "“Substituted benzene compounds, process for their preparation, and herbicidal and defoliant compositions containing them” (ISK Americas Incorporated, priority 1997, dated 2002)", "type_in_all_cases": "in vivo", "key": {"[1]": {"tested_on": "ivyleaf morningglory (Ipomoea hederacea, IPOHE)", "assay": "Post-emerge test, greenhouse herbicide activity screening", "settings": "rating scale 0-100 (0 no damage, 100 complete death), 14 days after application", "summary_of_the_method": "(§1)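 Compounds in acetone were track-sprayed at 15-1000 g ai/ha (187 l/ha) on sandy loam pots: pre-emerge one day after seeding, post-emerge at 2-3 leaf stage with 0.25% v/v non-ionic surfactant. Phytotoxicity was rated 14 days later on a 0 (no damage) to 100 (complete death) scale.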"}, "[2]": {"tested_on": "sicklepod (Cassia obtusifolia, CASOB)", "assay": "Post-emerge test, greenhouse herbicide activity screening", "settings": "rating scale 0-100 (0 no damage, 100 complete death), 14 days after application", "summary_of_the_method": "as §1"}, "[3]": {"tested_on": "velvetleaf (Abutilon theophrasti, ABUTH)", "assay": "Post-emerge test, greenhouse herbicide activity screening", "settings": "rating scale 0-100 (0 no damage, 100 complete death), 14 days after application", "summary_of_the_method": "as §1"}, "[4]": {"tested_on": "green foxtail (Setaria viridis, SETVI)", "assay": "Post-emerge test, greenhouse herbicide activity screening", "settings": "rating scale 0-100 (0 no damage, 100 complete death), 14 days after application", "summary_of_the_method": "as §1"}, "[5]": {"tested_on": "large crabgrass (Digitaria sanguinalis, DIGSA)", "assay": "Post-emerge test, greenhouse herbicide activity screening", "settings": "rating scale 0-100 (0 no damage, 100 complete death), 14 days after application", "summary_of_the_method": "as §1"}, "[6]": {"tested_on": "lambsquarters (Chenopodium album, CHEAL)", "assay": "Post-emerge test, greenhouse herbicide activity screening", "settings": "rating scale 0-100 (0 no damage, 100 complete death), 14 days after application", "summary_of_the_method": "as §1"}, "[7]": {"tested_on": "johnsongrass (Sorghum halepense, SORHA)", "assay": "Post-emerge test, greenhouse herbicide activity screening", "settings": "rating scale 0-100 (0 no damage, 100 complete death), 14 days after application", "summary_of_the_method": "as §1"}, "[8]": {"tested_on": "barnyardgrass (Echinochloa crus-galli, ECHCG)", "assay": "Post-emerge test, greenhouse herbicide activity screening", "settings": "rating scale 0-100 (0 no damage, 100 complete death), 14 days after application", "summary_of_the_method": "as §1"}, "[9]": {"tested_on": "redroot pigweed (Amaranthus retroflexus, AMARE)", "assay": "Post-emerge test, greenhouse herbicide activity screening", "settings": "rating scale 0-100 (0 no damage, 100 complete death), 14 days after application", "summary_of_the_method": "as §1"}, "[10]": {"tested_on": "common ragweed (Ambrosia artemisizfolia L., AMBEL)", "assay": "Pre-emerge test, greenhouse herbicide activity screening", "settings": "rating scale 0-100, 14 days after application", "summary_of_the_method": "(§2)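 Rating: 0–100 visual injury, 14 DAA. Application: acetone, 187 l/ha, 15–1000 g ai/ha, flat-fan track sprayer with nozzle 40–45 cm above soil or canopy. Post-emerge runs used 0.25% v/v surfactant on 2–3 leaf plants.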"}, "[11]": {"tested_on": "ivyleaf morningglory (Ipomoea hederacea, IPOHE)", "assay": "Pre-emerge test, greenhouse herbicide activity screening", "settings": "rating scale 0-100, 14 days after application", "summary_of_the_method": "as §2"}, "[12]": {"tested_on": "sicklepod (Cassia obtusifolia, CASOB)", "assay": "Pre-emerge test, greenhouse herbicide activity screening", "settings": "rating scale 0-100, 14 days after application", "summary_of_the_method": "as §2"}, "[13]": {"tested_on": "velvetleaf (Abutilon theophrasti, ABUTH)", "assay": "Pre-emerge test, greenhouse herbicide activity screening", "settings": "rating scale 0-100, 14 days after application", "summary_of_the_method": "as §2"}, "[14]": {"tested_on": "green foxtail (Setaria viridis, SETVI)", "assay": "Pre-emerge test, greenhouse herbicide activity screening", "settings": "rating scale 0-100, 14 days after application", "summary_of_the_method": "as §2"}, "[15]": {"tested_on": "large crabgrass (Digitaria sanguinalis, DIGSA)", "assay": "Pre-emerge test, greenhouse herbicide activity screening", "settings": "rating scale 0-100, 14 days after application", "summary_of_the_method": "as §2"}, "[16]": {"tested_on": "lambsquarters (Chenopodium album, CHEAL)", "assay": "Pre-emerge test, greenhouse herbicide activity screening", "settings": "rating scale 0-100, 14 days after application", "summary_of_the_method": "as §2"}, "[17]": {"tested_on": "johnsongrass (Sorghum halepense, SORHA)", "assay": "Pre-emerge test, greenhouse herbicide activity screening", "settings": "rating scale 0-100, 14 days after application", "summary_of_the_method": "as §2"}, "[18]": {"tested_on": "barnyardgrass (Echinochloa crus-galli, ECHCG)", "assay": "Pre-emerge test, greenhouse herbicide activity screening", "settings": "rating scale 0-100, 14 days after application", "summary_of_the_method": "as §2"}, "[19]": {"tested_on": "field corn (Zea mays L., var. Dekalb 535, CORN)", "assay": "Post-emerge test, crop safety", "settings": "rating scale 0-100 (0 no damage, 100 complete death), 14 days after application", "summary_of_the_method": "(§3)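 Plants grown in 10 cm pots of sandy loam mix received acetone-dissolved compounds through a moving flat-fan nozzle. Doses ranged from 15 to 1000 g ai/ha. Pre-emerge pots were seeded one day earlier, post-emerge pots 8–21 days earlier. Fourteen days on, each pot was graded 0–100 for damage.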"}, "[20]": {"tested_on": "upland rice (Oryza sp., var. Tebonnet, RICE)", "assay": "Post-emerge test, crop safety", "settings": "rating scale 0-100 (0 no damage, 100 complete death), 14 days after application", "summary_of_the_method": "as §3"}, "[21]": {"tested_on": "redroot pigweed (Amaranthus retroflexus, AMARE)", "assay": "Pre-emerge test, greenhouse herbicide activity screening", "settings": "rating scale 0-100, 14 days after application", "summary_of_the_method": "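Visual ratings on a 0-100 scale (0 no damage, 100 all plants dead) were taken at 14 days after treatment. Rates of 15-1000 g ai/ha in acetone, 187 l/ha, were sprayed onto soil one day after planting (pre-emerge) or onto 2-3 leaf plants with 0.25% v/v surfactant (post-emerge).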"}, "[22]": {"tested_on": "field corn (Zea mays L., var. Dekalb 535, CORN)", "assay": "Pre-emerge test, crop safety", "settings": "rating scale 0-100, 14 days after application", "summary_of_the_method": "(§4)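 Applied at 15–1000 g ai/ha from acetone in 187 l/ha spray volume. Post-emergence applications included 0.25% v/v non-ionic surfactant and reached plants sown 8–21 days before. Pre-emergence applications were incorporated by surface watering. Efficacy or crop damage was rated on a 0–100 scale after 14 days.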"}, "[23]": {"tested_on": "upland rice (Oryza sp., var. Tebonnet, RICE)", "assay": "Pre-emerge test, crop safety", "settings": "rating scale 0-100, 14 days after application", "summary_of_the_method": "as §4"}}}
{"smiles": "COc1c(Cl)cc(F)c(-n2c(=O)cc(C(F)(F)F)n(C)c2=O)c1CC(C)(Cl)C(=O)OC(C(F)(F)F)C(F)(F)F", "note": "(stereo not shown) [14-46]", "values": [{"measurement": "Post-emerge Herbicidal Activity, phytotoxicity rating IPOHE", "setting": "[1]; Rate 63 g ai/ha", "value": 100}, {"measurement": "Post-emerge Herbicidal Activity, phytotoxicity rating IPOHE", "setting": "[1]; Rate 250 g ai/ha", "value": 100}, {"measurement": "Post-emerge Herbicidal Activity, phytotoxicity rating CASOB", "setting": "[2]; Rate 63 g ai/ha", "value": 60}, {"measurement": "Post-emerge Herbicidal Activity, phytotoxicity rating CASOB", "setting": "[2]; Rate 250 g ai/ha", "value": 90}, {"measurement": "Post-emerge Herbicidal Activity, phytotoxicity rating ABUTH", "setting": "[3]; Rate 63 g ai/ha", "value": 100}, {"measurement": "Post-emerge Herbicidal Activity, phytotoxicity rating ABUTH", "setting": "[3]; Rate 250 g ai/ha", "value": 100}, {"measurement": "Post-emerge Herbicidal Activity, phytotoxicity rating SETVI", "setting": "[4]; Rate 63 g ai/ha", "value": 90}, {"measurement": "Post-emerge Herbicidal Activity, phytotoxicity rating SETVI", "setting": "[4]; Rate 250 g ai/ha", "value": 100}, {"measurement": "Post-emerge Herbicidal Activity, phytotoxicity rating DIGSA", "setting": "[5]; Rate 63 g ai/ha", "value": 80}, {"measurement": "Post-emerge Herbicidal Activity, phytotoxicity rating DIGSA", "setting": "[5]; Rate 250 g ai/ha", "value": 100}, {"measurement": "Post-emerge Herbicidal Activity, phytotoxicity rating CHEAL", "setting": "[6]; Rate 63 g ai/ha", "value": 100}, {"measurement": "Post-emerge Herbicidal Activity, phytotoxicity rating CHEAL", "setting": "[6]; Rate 250 g ai/ha", "value": 100}, {"measurement": "Post-emerge Herbicidal Activity, phytotoxicity rating SORHA", "setting": "[7]; Rate 63 g ai/ha", "value": 80}, {"measurement": "Post-emerge Herbicidal Activity, phytotoxicity rating SORHA", "setting": "[7]; Rate 250 g ai/ha", "value": 90}, {"measurement": "Post-emerge Herbicidal Activity, phytotoxicity rating ECHCG", "setting": "[8]; Rate 63 g ai/ha", "value": 100}, {"measurement": "Post-emerge Herbicidal Activity, phytotoxicity rating ECHCG", "setting": "[8]; Rate 250 g ai/ha", "value": 100}, {"measurement": "Post-emerge Herbicidal Activity, phytotoxicity rating AMARE", "setting": "[9]; Rate 63 g ai/ha", "value": 95}, {"measurement": "Post-emerge Herbicidal Activity, phytotoxicity rating AMARE", "setting": "[9]; Rate 250 g ai/ha", "value": 100}, {"measurement": "Pre-emerge herbicidal activity, phytotoxicity rating AMBEL", "setting": "[10]; 63 g ai/ha", "value": 50}, {"measurement": "Pre-emerge herbicidal activity, phytotoxicity rating AMBEL", "setting": "[10]; 250 g ai/ha", "value": 100}, {"measurement": "Pre-emerge herbicidal activity, phytotoxicity rating IPOHE", "setting": "[11]; 63 g ai/ha", "value": 0}, {"measurement": "Pre-emerge herbicidal activity, phytotoxicity rating IPOHE", "setting": "[11]; 250 g ai/ha", "value": 0}, {"measurement": "Pre-emerge herbicidal activity, phytotoxicity rating CASOB", "setting": "[12]; 63 g ai/ha", "value": 0}, {"measurement": "Pre-emerge herbicidal activity, phytotoxicity rating CASOB", "setting": "[12]; 250 g ai/ha", "value": 0}, {"measurement": "Pre-emerge herbicidal activity, phytotoxicity rating ABUTH", "setting": "[13]; 63 g ai/ha", "value": 80}, {"measurement": "Pre-emerge herbicidal activity, phytotoxicity rating ABUTH", "setting": "[13]; 250 g ai/ha", "value": 100}, {"measurement": "Pre-emerge herbicidal activity, phytotoxicity rating SETVI", "setting": "[14]; 63 g ai/ha", "value": 0}, {"measurement": "Pre-emerge herbicidal activity, phytotoxicity rating SETVI", "setting": "[14]; 250 g ai/ha", "value": 0}, {"measurement": "Pre-emerge herbicidal activity, phytotoxicity rating DIGSA", "setting": "[15]; 63 g ai/ha", "value": 0}, {"measurement": "Pre-emerge herbicidal activity, phytotoxicity rating DIGSA", "setting": "[15]; 250 g ai/ha", "value": 0}, {"measurement": "Pre-emerge herbicidal activity, phytotoxicity rating CHEAL", "setting": "[16]; 63 g ai/ha", "value": 0}, {"measurement": "Pre-emerge herbicidal activity, phytotoxicity rating CHEAL", "setting": "[16]; 250 g ai/ha", "value": 90}, {"measurement": "Pre-emerge herbicidal activity, phytotoxicity rating SORHA", "setting": "[17]; 63 g ai/ha", "value": 0}, {"measurement": "Pre-emerge herbicidal activity, phytotoxicity rating SORHA", "setting": "[17]; 250 g ai/ha", "value": 0}, {"measurement": "Pre-emerge herbicidal activity, phytotoxicity rating ECHCG", "setting": "[18]; 63 g ai/ha", "value": 0}, {"measurement": "Pre-emerge herbicidal activity, phytotoxicity rating ECHCG", "setting": "[18]; 250 g ai/ha", "value": 0}, {"measurement": "Post-emerge phytotoxicity rating CORN (crop damage)", "setting": "[19]; Rate 63 g ai/ha", "value": 95}, {"measurement": "Post-emerge phytotoxicity rating CORN (crop damage)", "setting": "[19]; Rate 250 g ai/ha", "value": 100}, {"measurement": "Post-emerge phytotoxicity rating RICE (crop damage)", "setting": "[20]; Rate 63 g ai/ha", "value": 60}, {"measurement": "Post-emerge phytotoxicity rating RICE (crop damage)", "setting": "[20]; Rate 250 g ai/ha", "value": 100}, {"measurement": "Pre-emerge herbicidal activity, phytotoxicity rating AMARE", "setting": "[21]; 63 g ai/ha", "value": 60}, {"measurement": "Pre-emerge herbicidal activity, phytotoxicity rating AMARE", "setting": "[21]; 250 g ai/ha", "value": 95}, {"measurement": "Pre-emerge phytotoxicity rating, crop damage CORN", "setting": "[22]; 63 g ai/ha", "value": 0}, {"measurement": "Pre-emerge phytotoxicity rating, crop damage CORN", "setting": "[22]; 250 g ai/ha", "value": 0}, {"measurement": "Pre-emerge phytotoxicity rating, crop damage RICE", "setting": "[23]; 63 g ai/ha", "value": 0}, {"measurement": "Pre-emerge phytotoxicity rating, crop damage RICE", "setting": "[23]; 250 g ai/ha", "value": 30}]}
